Test results from US20060069132A1, “Azolecarboxamide herbicides” (priority 2004, published 2006).

What was measured:
barnyardgrass [1] = test: Test B pre-/postemergence herbicide test; assay type: in vivo, Echinochloa crus-galli; settings: for Barnyardgrass plant response rating: postemergence
How it was run: (§1)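 Formulation: non-phytotoxic solvent mix with surfactant. Timing: preemergence on seed and postemergence on 2–18 cm plants, applied concurrently. Readout after 13–15 d greenhouse: visual 0–100 control rating against controls.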

Surinam grass = test: Test B pre-/postemergence herbicide test; assay type: in vivo, Urochloa decumbens; settings: for Surinam Grass plant response rating: scale 0 (no effect) to 100 (complete control)
How it was run: (§2)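 Response was scored visually 13 to 15 days after treatment against untreated greenhouse controls, 0 meaning no effect and 100 complete control. Formulations (solvent mixture plus surfactant) went onto soil after planting, onto foliage of 1- to 4-leaf plants, and onto 2-leaf plants in a flooded paddy set including rice and barnyardgrass.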

cocklebur = test: Test B pre-/postemergence herbicide test; assay type: in vivo, Xanthium strumarium; settings: for Cocklebur plant response rating: postemergence
How it was run: as §1

corn = test: Test B pre-/postemergence herbicide test; assay type: in vivo, Zea mays; settings: for Corn plant response rating: postemergence
How it was run: as §2

large crabgrass = test: Test B pre-/postemergence herbicide test; assay type: in vivo, Digitaria sanguinalis; settings: for Crabgrass, Large plant response rating: postemergence
How it was run: as §2

giant foxtail = test: Test B pre-/postemergence herbicide test; assay type: in vivo, Setaria faberi; settings: for Foxtail, Giant plant response rating: postemergence
How it was run: as §2

lambsquarters = test: Test B pre-/postemergence herbicide test; assay type: in vivo, Chenopodium album; settings: for Lambsquarters plant response rating: scale 0 (no effect) to 100 (complete control)
How it was run: as §2

morningglory = test: Test B pre-/postemergence herbicide test; assay type: in vivo, Ipomoea coccinea; settings: for Morningglory plant response rating: scale 0 (no effect) to 100 (complete control)
How it was run: as §1

pigweed = test: Test B pre-/postemergence herbicide test; assay type: in vivo, Amaranthus retroflexus; settings: 125 g ai/ha
How it was run: as §2

velvetleaf = test: Test B pre-/postemergence herbicide test; assay type: in vivo, Abutilon theophrasti; settings: for Velvetleaf plant response rating: scale 0 (no effect) to 100 (complete control)
How it was run: as §2

blackgrass = test: Test B postemergence herbicide test; assay type: in vivo, Alopecurus myosuroides; settings: postemergence
How it was run: (§3)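 Scale 0–100: zero equals no visible effect, 100 complete control, judged by eye relative to controls. Timing: 13 to 15 days in greenhouse post-treatment. Growth stage at spraying: two leaves (paddy) or one to four leaves, 2–18 cm (postemergence).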

wheat = test: Test B postemergence herbicide test; assay type: in vivo, Triticum aestivum; set-up: key to Wheat plant response rating: 0 = no effect, 100 = complete control
How it was run: (§4)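 Postemergence plants were sprayed with formulated test chemicals at 2 to 18 cm height (1- to 4-leaf stage); paddy species were grown to the 2-leaf stage. After 13 to 15 days in a greenhouse, injury was rated visually against untreated controls on a 0–100 scale (0 = no effect, 100 = complete control).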

wild oat = test: Test B postemergence herbicide test; assay type: in vivo, Avena fatua; settings: scale 0 (no effect) to 100 (complete control)
How it was run: as §4

rice = test: Test B flooded paddy test; assay type: in vivo, Oryza sativa; settings: 1000 g ai/ha, scale 0 to 100 (0 no effect, 100 complete control)
How it was run: as §4

[2] = test system: small flower umbrella sedge; test: Test B flooded paddy test; assay type: in vivo, Cyperus difformis; settings: 1000 g ai/ha, scale 0 to 100 (0 no effect, 100 complete control)
How it was run: as §3

ducksalad = test: Test B flooded paddy test; assay type: in vivo, Heteranthera limosa; settings: 1000 g ai/ha, scale 0 to 100 (0 no effect, 100 complete control)
How it was run: as §3

barnyardgrass [3] = test: Test B flooded paddy test; assay type: in vivo, Echinochloa crus-galli; settings: 1000 g ai/ha, scale 0 to 100 (0 no effect, 100 complete control)
How it was run: as §3

[4] = 125 g ai/ha, 0 is no effect, 100 is complete control, preemergence
[5] = 125 g ai/ha, visual rating, scale 0 (no effect) to 100 (complete control)
[6] = 500 g ai/ha, scale 0 to 100, 0 is no effect, 100 is complete control
[7] = 125 g ai/ha, visual rating, postemergence

With CCNC(=O)c1ccc(F)c(NC(=O)c2nn(C(C)(C)C)nc2C)c1 [Compound 377] the “Plant response rating (0 to 100 scale), Barnyardgrass” value (barnyardgrass [1]; [4]) was 0, the “Barnyardgrass plant response rating” value (barnyardgrass [1]; [5]) was 0 and the “Barnyardgrass plant response rating” value (barnyardgrass [1]; [6]) was 0. The “Plant response rating (0 to 100 scale), Surinam Grass” value (Surinam grass; [4]) was 0, the “Surinam Grass plant response rating” value (Surinam grass; [7]) was 0 and the “Surinam Grass plant response rating” value (Surinam grass; Postemergence, 500 g ai/ha) was 10. The “Plant response rating (0 to 100 scale), Cocklebur” value (cocklebur; [4]) was 0, the “Cocklebur plant response rating” value (cocklebur; [5]) was 0 and the “Cocklebur plant response rating” value (cocklebur; [6]) was 0. For the same compound, the “Plant response rating (0 to 100 scale), Corn” value (corn; [4]) was 0, the “Corn plant response rating” value (corn; [5]) was 0 and the “Corn plant response rating” value (corn; [6]) was 10. For the same compound, the “Plant response rating (0 to 100 scale), Crabgrass, Large” value (large crabgrass; [4]) was 20, the “Crabgrass, Large plant response rating” value (large crabgrass; [5]) was 0 and the “Crabgrass, Large plant response rating” value (large crabgrass; [6]) was 0. The “Plant response rating (0 to 100 scale), Foxtail, Giant” value (giant foxtail; [4]) was 0, the “Foxtail, Giant plant response rating” value (giant foxtail; [5]) was 0 and the “Foxtail, Giant plant response rating” value (giant foxtail; [6]) was 10. The “Plant response rating (0 to 100 scale), Lambsquarters” value (lambsquarters; [4]) was 0, the “Lambsquarters plant response rating” value (lambsquarters; [7]) was 60 and the “Lambsquarters plant response rating” value (lambsquarters; Postemergence, 500 g ai/ha) was 70. For the same compound, the “Plant response rating (0 to 100 scale), Morningglory” value (morningglory; [4]) was 0, the “Morningglory plant response rating” value (morningglory; [7]) was 0 and the “Morningglory plant response rating” value (morningglory; Postemergence, 500 g ai/ha) was 60. The “Plant response rating (0 to 100 scale), Pigweed” value (pigweed; 0 is no effect, 100 is complete control, preemergence) was 60, the “Pigweed plant response rating” value (pigweed; visual rating, scale 0 (no effect) to 100 (complete control), postemergence) was 30 and the “Plant response rating (0 to 100 scale), Velvetleaf” value (velvetleaf; [4]) was 0. The “Velvetleaf plant response rating” value (velvetleaf; [7]) was 20, the “Velvetleaf plant response rating” value (velvetleaf; Postemergence, 500 g ai/ha) was 40 and the “Blackgrass plant response rating” value (blackgrass; [5]) was 0. The “Blackgrass plant response rating” value (blackgrass; [6]) was 0, the “Wheat plant response rating” value (wheat; 125 g ai/ha, visual rating, scale 0 (no effect) to 100 (complete control), postemergence) was 0 and the “Wheat plant response rating” value (wheat; 500 g ai/ha, scale 0 to 100, 0 no effect, 100 complete control, preemergence) was 20. The “Wheat plant response rating” value (wheat; Postemergence, 500 g ai/ha, scale 0 (no effect) to 100 (complete control)) was 0, the “Oat, Wild plant response rating” value (wild oat; [7]) was 0 and the “Oat, Wild plant response rating” value (wild oat; Postemergence, 500 g ai/ha) was 0. The “Rice plant response rating” value (rice) was 40, the “Sedge, Umbrella plant response rating” value [2] was 80 and the “Ducksalad plant response rating” value (ducksalad) was 40. The “Barnyardgrass plant response rating” value (barnyardgrass [3]) was 30.
